For orientation: IC50 means the midpoint of a concentration-inhibition curve.

32 molecules from patent US9145392B2, “Imidazole amines as modulators of kinase activity” (Merck Patent GmbH, priority 2011, dated 2015) can be followed below.

In one test the target is His-AKT (Full Length) (Homo sapiens (Human), UniProt P31749). The experiment in a line: AKT enzyme assay. To be noted: read-out: IC50 AKT. It is filed as biochemical.
Another test has as its target P70S6K (T412E mutant) (Homo sapiens (Human), UniProt P23443, T412E). The experiment in a line: P70S6K enzyme assay. The class given is biochemical. The settings on record: read-out: IC50 p70S6K. The method in brief:
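Phosphorylated product and substrate peptide separated by microfluidic capillary electrophoresis (Caliper LabChip 3000), product peaks resolving before substrate.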

Chain of His-AKT (Full Length) (P31749 whole entry): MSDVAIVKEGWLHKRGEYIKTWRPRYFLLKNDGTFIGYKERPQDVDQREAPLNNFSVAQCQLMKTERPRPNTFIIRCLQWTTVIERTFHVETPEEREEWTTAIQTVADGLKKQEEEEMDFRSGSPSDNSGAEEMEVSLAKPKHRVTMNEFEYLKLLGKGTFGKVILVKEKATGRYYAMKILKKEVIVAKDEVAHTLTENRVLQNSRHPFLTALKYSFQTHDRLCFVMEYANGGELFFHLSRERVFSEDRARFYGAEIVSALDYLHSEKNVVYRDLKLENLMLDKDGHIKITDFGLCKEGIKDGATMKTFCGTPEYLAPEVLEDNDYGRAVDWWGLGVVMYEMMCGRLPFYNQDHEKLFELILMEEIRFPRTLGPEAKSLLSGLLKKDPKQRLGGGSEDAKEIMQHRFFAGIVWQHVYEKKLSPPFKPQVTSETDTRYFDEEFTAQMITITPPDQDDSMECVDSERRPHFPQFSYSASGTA
Chain of P70S6K (T412E mutant) (P23443 whole entry T412E): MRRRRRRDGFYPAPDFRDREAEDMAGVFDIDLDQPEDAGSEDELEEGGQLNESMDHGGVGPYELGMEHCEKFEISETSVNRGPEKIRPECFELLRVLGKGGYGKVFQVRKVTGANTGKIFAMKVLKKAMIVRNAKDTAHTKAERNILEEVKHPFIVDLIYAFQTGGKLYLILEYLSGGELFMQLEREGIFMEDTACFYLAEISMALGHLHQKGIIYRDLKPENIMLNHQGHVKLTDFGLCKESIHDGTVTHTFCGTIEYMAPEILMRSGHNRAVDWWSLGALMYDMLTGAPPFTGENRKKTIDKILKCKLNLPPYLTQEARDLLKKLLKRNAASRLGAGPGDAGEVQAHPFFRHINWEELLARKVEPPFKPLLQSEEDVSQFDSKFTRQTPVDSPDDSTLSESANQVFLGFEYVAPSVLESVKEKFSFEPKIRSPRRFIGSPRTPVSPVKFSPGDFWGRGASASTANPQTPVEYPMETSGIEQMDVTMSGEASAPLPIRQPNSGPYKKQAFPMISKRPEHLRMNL

In the case of `CCc1c(N)ncnc1N1CCC(c2nc(-c3cccc(Cl)c3)cn2CCN2CCCC2)CC1` [Compound 274], the IC50 on His-AKT (Full Length) came to 12 nM; on P70S6K (T412E mutant), 1.5 nM.
`Nc1ncnc(N2CCC(c3nc(-c4ccc(F)cc4)cn3CCN3CCCC3)CC2)c1C1CCC1` [Compound 256]: the results for the IC50 at His-AKT (Full Length) and on P70S6K (T412E mutant) were 11 nM and 6.5 nM, respectively.
`Nc1ncnc(N2CCC(c3nc(-c4ccc(F)c(C(F)(F)F)c4)cn3CCN3CCC3)CC2)c1Cl` [Compound 218]: the values for the IC50 at His-AKT (Full Length) and at P70S6K (T412E mutant) were 1 nM and 0.6 nM, respectively.
For `CCc1c(N)ncnc1N1CCC(c2nc(-c3cncc(Cl)c3)cn2CCN2CCC2)CC1` [Compound 101, 6-(4-(1-(2-(azetidin-1-yl)ethyl)-4-(5-chloropyridin-3-yl)-1H-imidazol-2-yl)piperidin-1-yl)-5-ethylpyrimidin-4-amine], in that order: 31 nM and 7.6 nM.
For `C=C(C)c1c(N)ncnc1N1CCC(c2nc(-c3ccc(F)c(C(F)(F)F)c3)cn2CCN2CCCCC2)CC1` [Compound 212], in that order: 16 nM and 6.7 nM.
In the case of `COc1ccc(-c2c(N)ncnc2N2CCC(c3nc(-c4ccc(F)c(C(F)(F)F)c4)cn3C)CC2)cc1` [Compound 11, 6-{4-[4-(4-Fluoro-3-trifluoromethyl-phenyl)-1-methyl-1H-imidazol-2-yl]-piperidin-1-yl}-5-(4-methoxy-phenyl)-pyrimidin-4-ylamine], the figures for the IC50 at His-AKT (Full Length) and on P70S6K (T412E mutant) were 520 nM and 4.7 nM, respectively.
As for `CCc1c(N)ncnc1N1CCC(c2nc(-c3ccc(F)c(F)c3)cn2CCN2CCC3(COC3)C2)CC1` [Compound 202, 6-(4-{4-(3,4-Difluoro-phenyl)-1-[2-(2-oxa-6-aza-spiro[3.4]oct-6-yl)-ethyl]-1H-imidazol-2-yl}-piperidin-1-yl)-5-ethyl-pyrimidin-4-ylamine], the IC50 stood at 89 nM on His-AKT (Full Length) and 9 nM on P70S6K (T412E mutant).
With `Nc1ncnc(N2CCC(c3nc(-c4ccc(F)c(C(F)(F)F)c4)cn3CC3CNC3)CC2)c1Cl` [Compound 148, 6-(4-(1-(azetidin-3-ylmethyl)-4-(4-fluoro-3-(trifluoromethyl)phenyl)-1H-imidazol-2-yl)piperidin-1-yl)-5-chloropyrimidin-4-amine], the IC50 stood at 16.5 nM at His-AKT (Full Length) and 4.8 nM on P70S6K (T412E mutant).
Turning to `Nc1ncnc(N2CCC(c3nc(-c4ccnc(C(F)(F)F)c4)cn3CCNCCCCl)CC2)c1Br` [Compound 127, 5-bromo-6-(4-(1-(2-((3-chloropropyl)amino)ethyl)-4-(2-(trifluoromethyl)pyridin-4-yl)-1H-imidazol-2-yl)piperidin-1-yl)pyrimidin-4-amine], the half-maximal inhibitory concentration (IC50) at His-AKT (Full Length) is 2.8 nM; on P70S6K (T412E mutant), 1 nM.
Regarding `Cc1ccc(-c2cn(CCN3CCC3)c(C3CCN(c4ncnc(N)c4C(N)=O)CC3)n2)cc1Cl` [Compound 346], the figures for the concentration for half-maximal inhibition (IC50) on His-AKT (Full Length) and on P70S6K (T412E mutant) were 220 nM and 3.9 nM, respectively.
The corresponding values for `Nc1ncnc(N2CCC(c3nc(-c4ccc(F)c(C(F)(F)F)c4)cn3CCN3CCCC3)CC2)c1Br` [Compound 56] are 14 nM and 3.5 nM.
On to `C=Cc1c(N)ncnc1N1CCC(c2nc(-c3ccc(F)c(C(F)(F)F)c3)cn2CCN2CCCC2)CC1` [Compound 60], for which the IC50 worked out at 6.8 nM on His-AKT (Full Length) and 2.5 nM on P70S6K (T412E mutant).
As for `CCc1c(N)ncnc1N1CCC(c2nc(-c3ccc(F)c(F)c3)cn2CCN2CCOCC2)CC1` [Compound 196, 6-{4-[4-(3,4-Difluoro-phenyl)-1-(2-morpholin-4-yl-ethyl)-1H-imidazol-2-yl]-piperidin-1-yl}-5-ethyl-pyrimidin-4-ylamine], the values for the IC50 at His-AKT (Full Length) and on P70S6K (T412E mutant) were 370 nM and 5.5 nM, respectively.
Consider `Cc1ccc(-c2cn(CCN3CCC3)c(C3CCN(c4ncnc(N)c4C#N)CC3)n2)cc1Cl` [Compound 322], for which the IC50 is 13 nM at His-AKT (Full Length) and 1.3 nM at P70S6K (T412E mutant).
Take `CCc1c(N)ncnc1N1CCC(c2nc(-c3ccc(F)c(OC)c3)cn2CCN2CCC2)CC1` [Compound 108, 6-(4-(1-(2-(azetidin-1-yl)ethyl)-4-(4-fluoro-3-methoxyphenyl)-1H-imidazol-2-yl)piperidin-1-yl)-5-ethylpyrimidin-4-amine]: the IC50 at His-AKT (Full Length) came out at 4.8 nM; at P70S6K (T412E mutant), 2.2 nM.
In the case of `N#Cc1c(N)ncnc1N1CCC(c2nc(-c3ccc(F)c(C(F)(F)F)c3)cn2C2CNC2)CC1` [Compound 142, 4-amino-6-(4-(1-(azetidin-3-yl)-4-(4-fluoro-3-(trifluoromethyl)phenyl)-1H-imidazol-2-yl)piperidin-1-yl)pyrimidine-5-carbonitrile], the IC50 came to 240 nM on His-AKT (Full Length) and 6.4 nM on P70S6K (T412E mutant).
With `N#Cc1c(N)ncnc1N1CCC(c2nc(-c3ccc(F)cc3)cn2CCN2CCCC2)CC1` [Compound 308], the figures for the IC50 on His-AKT (Full Length) and on P70S6K (T412E mutant) were 13 nM and 2.6 nM, respectively.
As for `CCOCCc1c(N)ncnc1N1CCC(c2nc(-c3ccc(F)c(C(F)(F)F)c3)cn2CCN(C)C)CC1` [Compound 84, 6-(4-(1-(2-(Dimethylamino)ethyl)-4-(4-fluoro-3-(trifluoromethyl)phenyl)-1H-imidazol-2-yl)piperidin-1-yl)-5-(2-ethoxyethyl)pyrimidin-4-amine], the IC50 was 340 nM at His-AKT (Full Length) and 5.2 nM on P70S6K (T412E mutant).
Take `CCc1c(N)ncnc1N1CCC(c2nc(-c3ccc(F)c(C)c3)cn2CCN(C)C)CC1` [Compound 295]: the figures for the IC50 on His-AKT (Full Length) and on P70S6K (T412E mutant) were 23 nM and 4.1 nM, respectively.
For `Nc1ncnc(N2CCC(c3nc(-c4ccc(O)c(C(F)(F)F)c4)cn3CCN3CCCC3)CC2)c1Cl` [Compound 210], in that order: 3 nM and 3.7 nM.
For `CN(C)CCn1cc(-c2ccc(F)c(C(F)(F)F)c2)nc1C1CCN(c2ncnc(N)c2C2CC2)CC1` [Compound 91, 5-Cyclopropyl-6-(4-(1-(2-(dimethylamino)ethyl)-4-(4-fluoro-3-(trifluoromethyl)phenyl)-1H-imidazol-2-yl)piperidin-1-yl)pyrimidin-4-amine], in that order: 4.8 nM and 3.2 nM.
Regarding `NC(=O)c1c(N)ncnc1N1CCC(c2nc(-c3cn[nH]c3)cn2CCN2CCC2)CC1` [Compound 145, 4-amino-6-(4-(1-(2-(azetidin-1-yl)ethyl)-4-(1H-pyrazol-4-yl)-1H-imidazol-2-yl)piperidin-1-yl)pyrimidine-5-carboxamide], the figures for the IC50 at His-AKT (Full Length) and at P70S6K (T412E mutant) were 2200 nM and 53 nM, respectively.
`Cc1cc(-c2cn(CCN(C)C(C)C)c(C3CCN(c4ncnc(N)c4C(N)=O)CC3)n2)ccc1F` [Compound 385, 4-Amino-6-(4-{4-(4-fluoro-3-methyl-phenyl)-1-[2-(isopropyl-methyl-amino)-ethyl]-1H-imidazol-2-yl}-piperidin-1-yl)-pyrimidine-5-carboxylic acid amide]: the IC50 came to 42 nM on His-AKT (Full Length) and 6.2 nM on P70S6K (T412E mutant).
The corresponding values for `CN(C)CCn1cc(-c2ccc(F)c(C(F)(F)F)c2)nc1C1CCN(c2ncnc(N)c2C(N)=O)CC1` [Compound 38, 4-Amino-6-{4-[1-(2-dimethylamino-ethyl)-4-(4-fluoro-3-trifluoromethyl-phenyl)-1H-imidazol-2-yl]-piperidin-1-yl}-pyrimidine-5-carboxylic acid amide] are 84 nM and 3.5 nM.
`NCCn1cc(-c2ccc(F)c(C(F)(F)F)c2)nc1C1CCN(c2ncnc(N)c2C(N)=O)CC1` [Compound 159, 4-amino-6-(4-(1-(2-aminoethyl)-4-(4-fluoro-3-(trifluoromethyl)phenyl)-1H-imidazol-2-yl)piperidin-1-yl)pyrimidine-5-carboxamide]: the IC50 at His-AKT (Full Length) was found to be 15 nM; on P70S6K (T412E mutant), 1.5 nM.
As for `Cc1cc(-c2cn(CCN(C)C)c(C3CCN(c4ncnc(N)c4C#N)CC3)n2)ccc1F` [Compound 325], the IC50 was 0.9 nM on His-AKT (Full Length) and 0.5 nM at P70S6K (T412E mutant).
The corresponding values for `CCc1c(N)ncnc1N1CCC(c2nc(-c3ccc(F)cc3)cn2CCN2CCC23COC3)CC1` [Compound 204, 5-Ethyl-6-(4-{4-(4-fluoro-phenyl)-1-[2-(6-oxa-1-aza-spiro[3.3]hept-1-yl)-ethyl]-1H-imidazol-2-yl}-piperidin-1-yl)-pyrimidin-4-ylamine] are 3600 nM and 37 nM.
Regarding `COc1cc(-c2cn(CCN3CCC3)c(C3CCN(c4ncnc(N)c4C#N)CC3)n2)ccc1F` [Compound 120, 4-amino-6-(4-(1-(2-(azetidin-1-yl)ethyl)-4-(4-fluoro-3-methoxyphenyl)-1H-imidazol-2-yl)piperidin-1-yl)pyrimidine-5-carbonitrile], the IC50 worked out at 2.4 nM on His-AKT (Full Length) and 1 nM on P70S6K (T412E mutant).
The corresponding values for `CCOc1c(N)ncnc1N1CCC(c2nc(-c3ccc(F)c(C)c3)cn2CCN2CCCC2)CC1` [Compound 298] are 6.6 nM and 6.8 nM.
Consider `CN(C)CCn1cc(-c2ccc(F)c(C(F)(F)F)c2)nc1C1CCN(c2ncnc(N)c2C#N)CC1` [Compound 8, 4-Amino-6-{4-[1-(2-dimethylamino-ethyl)-4-(4-fluoro-3-trifluoromethyl-phenyl)-1H-imidazol-2-yl]-piperidin-1-yl}-pyrimidine-5-carbonitrile], for which the IC50 on His-AKT (Full Length) stood at 9.1 nM; at P70S6K (T412E mutant), 1.8 nM.
For the molecule `CC(C)c1cc(-c2cn(CCN3CCC3)c(C3CCN(c4ncnc(N)c4Br)CC3)n2)ccn1` [Compound 181, 6-(4-(1-(2-(azetidin-1-yl)ethyl)-4-(2-isopropylpyridin-4-yl)-1H-imidazol-2-yl)piperidin-1-yl)-5-bromopyrimidin-4-amine], the IC50 at His-AKT (Full Length) was found to be 0.15 nM; at P70S6K (T412E mutant) it was 0.11 nM.
Take `COCCNCCn1cc(-c2ccc(F)c(C(F)(F)F)c2)nc1C1CCN(c2ncnc(N)c2C#N)CC1` [Compound 364, 4-Amino-6-(4-{4-(4-fluoro-3-trifluoromethyl-phenyl)-1-[2-(2-methoxy-ethylamino)-ethyl]-1H-imidazol-2-yl}-piperidin-1-yl)-pyrimidine-5-carbonitrile]: the IC50 is 2.5 nM at His-AKT (Full Length) and 1.4 nM on P70S6K (T412E mutant).
